Assay results reported in ChEMBL document CHEMBL2074052, “Human organic anion transporters and human organic cation transporters mediate renal antiviral transport” (J Pharmacol Exp Ther, 2002).
Each block holds one compound with its values, some of them ahead of it.

Assays:
Format in all cases: functional, cell-based
[1] = target: T1, OAT3 (Organic anion transporter 3) (Homo sapiens, UniProt Q8TCC7); experiment: TP_TRANSPORTER: inhibition of Estrone sulfate uptake (E1S: 0.05 uM, ACV: 1000 uM) in OAT3-expressing S2 cells; parameters: scale not given: the % may be the effect or the level left; conditions: mouse, probe Estrone sulfate (E1S), read-out: Activity
T1 sequence (Q8TCC7 whole entry): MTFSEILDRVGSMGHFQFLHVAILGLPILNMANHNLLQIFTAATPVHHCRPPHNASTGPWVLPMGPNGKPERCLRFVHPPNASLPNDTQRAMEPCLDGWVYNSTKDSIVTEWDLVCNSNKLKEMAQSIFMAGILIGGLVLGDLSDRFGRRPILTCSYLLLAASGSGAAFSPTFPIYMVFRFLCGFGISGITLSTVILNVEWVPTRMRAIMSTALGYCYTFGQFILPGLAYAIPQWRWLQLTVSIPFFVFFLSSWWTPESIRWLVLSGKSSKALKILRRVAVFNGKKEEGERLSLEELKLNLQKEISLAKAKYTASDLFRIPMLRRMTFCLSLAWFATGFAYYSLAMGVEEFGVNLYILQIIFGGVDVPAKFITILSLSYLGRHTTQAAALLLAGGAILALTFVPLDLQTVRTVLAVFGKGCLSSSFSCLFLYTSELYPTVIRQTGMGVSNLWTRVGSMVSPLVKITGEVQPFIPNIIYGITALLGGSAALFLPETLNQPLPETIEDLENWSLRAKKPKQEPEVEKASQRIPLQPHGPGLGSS

[2] = target: T2, OAT1 (Solute carrier family 22 member 6) (Homo sapiens, UniProt Q4U2R8); experiment: TP_TRANSPORTER: inhibition of PAH uptake (PAH: 5 uM, ACV: 1000 uM) in OAT1-expressing S2 cells; parameters: scale not given: the % may be the effect or the level left; conditions: probe PAH, read-out: Activity
T2 sequence (Q4U2R8 whole entry): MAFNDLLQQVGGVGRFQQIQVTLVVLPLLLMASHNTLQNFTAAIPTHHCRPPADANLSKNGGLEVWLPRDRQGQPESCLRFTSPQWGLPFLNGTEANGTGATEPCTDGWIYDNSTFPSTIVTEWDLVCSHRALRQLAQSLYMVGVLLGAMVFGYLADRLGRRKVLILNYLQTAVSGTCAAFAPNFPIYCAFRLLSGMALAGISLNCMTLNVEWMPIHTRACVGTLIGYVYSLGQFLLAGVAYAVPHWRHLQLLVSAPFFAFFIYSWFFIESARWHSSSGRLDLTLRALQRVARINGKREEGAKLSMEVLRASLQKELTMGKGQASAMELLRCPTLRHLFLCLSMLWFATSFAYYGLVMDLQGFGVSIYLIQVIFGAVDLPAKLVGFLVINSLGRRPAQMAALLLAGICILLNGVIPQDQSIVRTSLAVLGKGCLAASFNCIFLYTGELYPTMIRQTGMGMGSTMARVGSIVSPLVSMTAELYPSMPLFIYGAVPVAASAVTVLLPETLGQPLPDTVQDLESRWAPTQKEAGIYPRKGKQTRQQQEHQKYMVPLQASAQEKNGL

[3] = target: T3, OCT1 (Solute carrier family 22 member 1) (Homo sapiens, UniProt O15245); experiment: TP_TRANSPORTER: inhibition of TEA uptake (TEA: 5 uM, ACV: 1000 uM) in OCT1-expressing S2 cells; parameters: scale not given: the % may be the effect or the level left; conditions: probe TEA, read-out: Activity
T3 sequence (O15245 whole entry): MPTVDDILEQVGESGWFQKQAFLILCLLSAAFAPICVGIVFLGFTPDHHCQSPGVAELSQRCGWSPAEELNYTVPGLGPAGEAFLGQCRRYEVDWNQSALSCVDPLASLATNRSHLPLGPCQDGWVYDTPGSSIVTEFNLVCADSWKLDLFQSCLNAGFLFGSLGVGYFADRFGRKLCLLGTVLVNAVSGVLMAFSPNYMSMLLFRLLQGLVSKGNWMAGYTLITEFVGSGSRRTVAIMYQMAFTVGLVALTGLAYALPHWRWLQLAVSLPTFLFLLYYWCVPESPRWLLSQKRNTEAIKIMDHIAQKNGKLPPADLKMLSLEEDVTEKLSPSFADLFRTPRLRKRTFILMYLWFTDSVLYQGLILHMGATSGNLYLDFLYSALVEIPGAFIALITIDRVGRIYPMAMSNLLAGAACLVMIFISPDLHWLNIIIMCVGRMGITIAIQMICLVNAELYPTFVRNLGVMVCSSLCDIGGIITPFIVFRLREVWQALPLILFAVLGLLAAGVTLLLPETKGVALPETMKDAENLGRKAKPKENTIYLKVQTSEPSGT

[4] = target: T1, OAT3 (Organic anion transporter 3); experiment: TP_TRANSPORTER: uptake in OAT3-expressing S2 cells; conditions: mouse
[5] = target: T4, OAT2 (Solute carrier family 22 member 7) (Homo sapiens, UniProt Q9Y694); experiment: TP_TRANSPORTER: inhibition of PGF2alpha uptake (PGF2alpha: 0.005 uM, AZT: 1000 uM) in OAT2-expressing S2 cells; parameters: scale not given: the % may be the effect or the level left; conditions: probe PGF2alpha, read-out: Activity
T4 sequence (Q9Y694 whole entry): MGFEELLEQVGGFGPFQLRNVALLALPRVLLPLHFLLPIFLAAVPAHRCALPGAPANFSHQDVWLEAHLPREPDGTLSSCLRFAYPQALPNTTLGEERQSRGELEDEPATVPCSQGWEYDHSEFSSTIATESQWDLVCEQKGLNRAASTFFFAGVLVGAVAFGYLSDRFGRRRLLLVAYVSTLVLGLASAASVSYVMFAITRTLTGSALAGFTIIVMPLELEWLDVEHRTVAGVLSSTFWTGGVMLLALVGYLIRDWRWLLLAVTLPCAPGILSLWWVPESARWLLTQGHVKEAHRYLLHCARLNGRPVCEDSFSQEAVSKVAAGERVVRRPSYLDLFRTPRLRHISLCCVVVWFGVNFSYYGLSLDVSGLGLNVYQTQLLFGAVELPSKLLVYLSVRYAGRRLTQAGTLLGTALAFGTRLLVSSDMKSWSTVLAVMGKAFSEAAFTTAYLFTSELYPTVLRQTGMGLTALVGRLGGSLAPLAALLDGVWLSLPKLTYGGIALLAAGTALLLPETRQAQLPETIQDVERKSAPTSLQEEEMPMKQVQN

[6] = target: T5, OAT4 (Solute carrier family 22 member 11) (Homo sapiens, UniProt Q9NSA0); experiment: TP_TRANSPORTER: inhibition of E1S uptake (E1S: 0.05 uM, AZT: 1000 uM) in OAT4-expressing S2 cells; parameters: scale not given: the % may be the effect or the level left; conditions: mouse, probe E1S, read-out: Activity
T5 sequence (Q9NSA0 whole entry): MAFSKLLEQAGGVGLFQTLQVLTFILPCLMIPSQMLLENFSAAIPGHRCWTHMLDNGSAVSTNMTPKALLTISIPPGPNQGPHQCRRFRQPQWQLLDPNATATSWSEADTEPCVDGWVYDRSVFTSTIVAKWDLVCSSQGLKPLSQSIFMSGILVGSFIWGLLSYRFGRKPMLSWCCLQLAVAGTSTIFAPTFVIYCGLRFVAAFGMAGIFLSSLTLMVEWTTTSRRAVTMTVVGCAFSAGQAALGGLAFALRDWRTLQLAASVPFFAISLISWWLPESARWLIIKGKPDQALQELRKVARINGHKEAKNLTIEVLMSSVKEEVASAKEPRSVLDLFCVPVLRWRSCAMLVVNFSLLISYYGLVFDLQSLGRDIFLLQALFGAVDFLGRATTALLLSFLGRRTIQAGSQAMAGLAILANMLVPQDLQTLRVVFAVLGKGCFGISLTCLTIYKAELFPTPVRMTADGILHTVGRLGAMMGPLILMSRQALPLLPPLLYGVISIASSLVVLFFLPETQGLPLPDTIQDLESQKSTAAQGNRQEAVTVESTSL

[7] = target: T1, OAT3 (Organic anion transporter 3); experiment: TP_TRANSPORTER: inhibition of E1S uptake (E1S: 0.05 uM, AZT: 1000 uM) in OAT3-expressing S2 cells; parameters: scale not given: the % may be the effect or the level left; conditions: mouse, probe E1S, read-out: Activity
[8] = target: T2, OAT1 (Solute carrier family 22 member 6); experiment: TP_TRANSPORTER: uptake in OAT1-expressing S2 cells
[9] = target: T2, OAT1 (Solute carrier family 22 member 6); experiment: TP_TRANSPORTER: inhibition of PAH uptake (PAH: 5 uM, AZT: 1000 uM) in OAT1-expressing S2 cells; parameters: scale not given: the % may be the effect or the level left; conditions: mouse, probe PAH, read-out: Activity
[10] = target: T4, OAT2 (Solute carrier family 22 member 7); experiment: TP_TRANSPORTER: uptake in OAT2-expressing S2 cells
[11] = target: T5, OAT4 (Solute carrier family 22 member 11); experiment: TP_TRANSPORTER: uptake in OAT4-expressing S2 cells
[12] = target: T4, OAT2 (Solute carrier family 22 member 7); experiment: TP_TRANSPORTER: inhibition of PGF2alpha uptake (PGF2alpha: 0.005 uM, GCV: 1000 uM) in OAT2-expressing S2 cells; parameters: scale not given: the % may be the effect or the level left; conditions: probe PGF2alpha, read-out: Activity
[13] = target: T1, OAT3 (Organic anion transporter 3); experiment: TP_TRANSPORTER: inhibition of E1S uptake (E1S: 0.05 uM, GCV: 1000 uM) in OAT3-expressing S2 cells; parameters: scale not given: the % may be the effect or the level left; conditions: mouse, probe E1S, read-out: Activity
[14] = target: T3, OCT1 (Solute carrier family 22 member 1); experiment: TP_TRANSPORTER: inhibition of TEA uptake (TEA: 5 uM, GCV: 1000 uM) in OCT1-expressing S2 cells; parameters: scale not given: the % may be the effect or the level left; conditions: probe TEA, read-out: Activity
[15] = target: T2, OAT1 (Solute carrier family 22 member 6); experiment: TP_TRANSPORTER: inhibition of PAH uptake (PAH: 5 uM, GCV: 1000 uM) in OAT1-expressing S2 cells; parameters: scale not given: the % may be the effect or the level left; conditions: mouse, probe PAH, read-out: Activity

activity at 1000 µM [1]: 64.3% | activity at 1000 µM [2]: 67% | activity at 1000 µM [3]: 88.4%
SMILES: Nc1nc2c(ncn2COCCO)c(=O)[nH]1 [ACYCLOVIR]

Km [4]: 145 µM | activity at 1000 µM [5]: 76.7% | activity at 1000 µM [6]: 84.2% | activity at 1000 µM [7]: 70% | Km [8]: 45.9 µM | activity at 1000 µM [9]: 30.7% | Km [10]: 26.8 µM | Km [11]: 152 µM
SMILES: Cc1cn([C@H]2C[C@H](N=[N+]=[N-])[C@@H](CO)O2)c(=O)[nH]c1=O [ZIDOVUDINE]

activity at 1000 µM [12]: 63.3% | activity at 1000 µM [13]: 74.3% | activity at 1000 µM [14]: 88.3% | activity at 1000 µM [15]: 87.1%
SMILES: Nc1nc(O)c2ncn(COC(CO)CO)c2n1 [GANCICLOVIR]
